Reference: patent US9221795B2, “Phosphatidylinositol 3-kinase inhibitors” (Gilead Sciences, Inc., priority 2013, dated 2015)
pEC50, pIC50: −log10 of the molar value.

What was measured:
[1] = target: PI3Kδ (Homo sapiens (Human), UniProt O00329); assay: Enzymatic activity of PI3K isoforms, TR-FRET assay (PI3Kδ); assay type: biochemical; details: 2× Km ATP, geometric mean if more than one value
Summary of the method: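 Recombinant heterodimeric PI3Kβ or PI3Kδ (25-50 pM) was run with 2 μM PIP2 and 2× Km ATP (75-500 μM) at pH 7.4, for 30 min at 25° C. PIP3 formation was detected by TR-FRET displacement of labeled PIP3 from Eu-GRP-1. IC50 values in nM come from four-parameter fits, as geometric means.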

[2] = target: PI3Kβ (Homo sapiens (Human), UniProt P42338); assay: Enzymatic activity of PI3K isoforms, TR-FRET assay (PI3Kβ); assay type: biochemical; details: 2× Km ATP, geometric mean if more than one value
Method: Enzymatic activity of the class I PI3K isoforms in the presence of the compounds of Table 1 and Compounds X, Y and Z was measured using a time-resolved fluorescence resonance energy transfer (TR-FRET) assay. The TR-FRET assay was used to monitor formation of the product 3,4,5-inositol triphosphate molecule (PIP3) as it competed with fluorescently labeled PIP3 for binding to the GRP-1 pleckstrin homology domain protein. An increase in […] product results in a decrease in TR-FRET signal as the labeled fluorophore is displaced from the GRP-1 protein binding site.
Class I PI3K isoforms were expressed and purified as heterodimeric recombinant proteins. All assay reagents and buffers for the TR-FRET assay were purchased from Millipore. PI3K isoforms were assayed under initial rate conditions in the presence of 25 mM Hepes (pH 7.4), and 2× Km ATP (75-500 μM), 2 μM PIP2, 5% glycerol, 5 mM MgCl2, 50 mM NaCl, 0.05% (v/v) Chaps, 1 mM dithiothreitol, 1% (v/v) DMSO at the following concentrations for each isoforms: PI3Kα, PI3Kβ, and PI3Kδ between 25 and 50 pM, and PI3Kγ at 2 nM. After an assay reaction time of 30 minutes at 25° C., reactions were terminated with a final concentration of 10 mM EDTA, 10 nM labeled-PIP3, and 35 nM Europium labeled GRP-1 detector protein before reading TR-FRET on an Envision plate reader (Ex: 340 nm; Em: 615/665 nm; […] delay and 500 μs read window).
Data were normalized based on positive ([…] wortmanin) and negative (DMSO) controls. α, β, δ, and γ IC50 values were calculated from the fit of the dose-response curves to a four-parameter equation. All IC50 values represent geometric mean values if more than one value was obtained. IC50 values were reported in units of nM.

[3] = tested on: basophils; assay: Basophil activation in human whole blood (Flow2 CAST kit, CD63 flow cytometry); assay type: cell-based; details: human whole blood, basophils activated with anti-FcεRI mAb or fMLP, percent CD63 positive cells
[4] = Hepatocyte stability (parent drug disappearance in cryopreserved hepatocytes); assay type: in vitro ADME, human; details: human, cryopreserved human hepatocytes, human hepatocytes, 2 μM substrate, 37° C.
Method: This assay was used to evaluate the metabolic stability of test articles (TA) following incubation in cryopreserved hepatocytes by monitoring parent drug disappearance via LC/MC. The TA was incubated with 1 million hepatocytes/mL at 2 μM substrate in duplicate. The incubation was carried out at 37° C. with 5% CO2 and saturating humidity. Samples were taken at 0, 1, 2, and 4 hours to monitor the disappearance of TA and a half-life (t1/2) was determined. Table 3 below summarizes the human hepatocyte t1/2 values (hours) collected in the Example.

Sequence of PI3Kδ (O00329 whole entry, canonical isoform): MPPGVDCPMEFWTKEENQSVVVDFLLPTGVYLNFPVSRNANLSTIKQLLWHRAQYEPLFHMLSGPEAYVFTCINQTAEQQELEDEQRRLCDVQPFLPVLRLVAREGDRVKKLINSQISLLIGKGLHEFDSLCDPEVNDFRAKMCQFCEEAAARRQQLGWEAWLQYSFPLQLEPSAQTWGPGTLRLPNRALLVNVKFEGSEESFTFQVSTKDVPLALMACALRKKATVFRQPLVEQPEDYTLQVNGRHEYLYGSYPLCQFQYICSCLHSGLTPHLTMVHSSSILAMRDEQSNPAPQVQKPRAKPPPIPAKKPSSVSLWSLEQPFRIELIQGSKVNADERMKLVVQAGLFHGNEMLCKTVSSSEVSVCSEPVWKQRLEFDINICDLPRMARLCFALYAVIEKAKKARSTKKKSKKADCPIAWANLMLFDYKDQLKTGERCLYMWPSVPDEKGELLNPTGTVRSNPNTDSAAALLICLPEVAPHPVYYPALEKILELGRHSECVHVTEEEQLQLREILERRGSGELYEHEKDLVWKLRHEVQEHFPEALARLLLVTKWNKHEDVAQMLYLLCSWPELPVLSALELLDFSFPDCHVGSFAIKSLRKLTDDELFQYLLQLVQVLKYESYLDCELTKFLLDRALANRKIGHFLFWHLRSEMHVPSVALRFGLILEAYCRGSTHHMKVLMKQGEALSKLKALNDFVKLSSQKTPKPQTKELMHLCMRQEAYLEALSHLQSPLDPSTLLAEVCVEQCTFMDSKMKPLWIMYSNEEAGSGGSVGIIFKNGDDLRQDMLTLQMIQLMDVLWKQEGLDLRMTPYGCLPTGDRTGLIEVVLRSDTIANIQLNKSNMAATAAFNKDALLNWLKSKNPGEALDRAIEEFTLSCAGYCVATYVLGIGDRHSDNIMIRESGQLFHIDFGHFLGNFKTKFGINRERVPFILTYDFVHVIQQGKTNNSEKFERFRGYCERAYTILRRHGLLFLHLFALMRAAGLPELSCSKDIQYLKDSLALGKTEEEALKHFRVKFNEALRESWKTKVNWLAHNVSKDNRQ
Sequence of PI3Kδ (P27986 whole entry partner, canonical isoform): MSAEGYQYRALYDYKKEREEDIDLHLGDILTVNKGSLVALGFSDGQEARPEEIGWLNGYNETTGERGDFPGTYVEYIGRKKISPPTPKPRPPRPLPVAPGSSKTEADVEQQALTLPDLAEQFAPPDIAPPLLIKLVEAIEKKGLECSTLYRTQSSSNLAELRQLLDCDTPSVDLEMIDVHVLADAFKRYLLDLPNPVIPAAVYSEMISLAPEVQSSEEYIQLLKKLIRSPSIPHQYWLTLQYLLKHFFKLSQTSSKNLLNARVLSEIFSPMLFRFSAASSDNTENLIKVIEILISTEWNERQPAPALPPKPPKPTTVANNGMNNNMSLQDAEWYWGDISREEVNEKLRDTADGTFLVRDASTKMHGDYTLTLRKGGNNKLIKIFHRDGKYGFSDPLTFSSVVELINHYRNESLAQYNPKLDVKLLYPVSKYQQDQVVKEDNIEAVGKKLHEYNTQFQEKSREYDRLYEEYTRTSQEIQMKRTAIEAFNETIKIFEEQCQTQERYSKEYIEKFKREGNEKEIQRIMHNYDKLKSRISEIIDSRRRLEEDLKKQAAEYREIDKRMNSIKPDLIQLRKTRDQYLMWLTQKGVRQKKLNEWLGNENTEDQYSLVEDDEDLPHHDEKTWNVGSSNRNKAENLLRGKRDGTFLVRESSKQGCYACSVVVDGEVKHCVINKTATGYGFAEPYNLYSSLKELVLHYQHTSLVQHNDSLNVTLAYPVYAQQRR
Sequence of PI3Kβ (P42338 whole entry, the tested form may be a part, canonical isoform): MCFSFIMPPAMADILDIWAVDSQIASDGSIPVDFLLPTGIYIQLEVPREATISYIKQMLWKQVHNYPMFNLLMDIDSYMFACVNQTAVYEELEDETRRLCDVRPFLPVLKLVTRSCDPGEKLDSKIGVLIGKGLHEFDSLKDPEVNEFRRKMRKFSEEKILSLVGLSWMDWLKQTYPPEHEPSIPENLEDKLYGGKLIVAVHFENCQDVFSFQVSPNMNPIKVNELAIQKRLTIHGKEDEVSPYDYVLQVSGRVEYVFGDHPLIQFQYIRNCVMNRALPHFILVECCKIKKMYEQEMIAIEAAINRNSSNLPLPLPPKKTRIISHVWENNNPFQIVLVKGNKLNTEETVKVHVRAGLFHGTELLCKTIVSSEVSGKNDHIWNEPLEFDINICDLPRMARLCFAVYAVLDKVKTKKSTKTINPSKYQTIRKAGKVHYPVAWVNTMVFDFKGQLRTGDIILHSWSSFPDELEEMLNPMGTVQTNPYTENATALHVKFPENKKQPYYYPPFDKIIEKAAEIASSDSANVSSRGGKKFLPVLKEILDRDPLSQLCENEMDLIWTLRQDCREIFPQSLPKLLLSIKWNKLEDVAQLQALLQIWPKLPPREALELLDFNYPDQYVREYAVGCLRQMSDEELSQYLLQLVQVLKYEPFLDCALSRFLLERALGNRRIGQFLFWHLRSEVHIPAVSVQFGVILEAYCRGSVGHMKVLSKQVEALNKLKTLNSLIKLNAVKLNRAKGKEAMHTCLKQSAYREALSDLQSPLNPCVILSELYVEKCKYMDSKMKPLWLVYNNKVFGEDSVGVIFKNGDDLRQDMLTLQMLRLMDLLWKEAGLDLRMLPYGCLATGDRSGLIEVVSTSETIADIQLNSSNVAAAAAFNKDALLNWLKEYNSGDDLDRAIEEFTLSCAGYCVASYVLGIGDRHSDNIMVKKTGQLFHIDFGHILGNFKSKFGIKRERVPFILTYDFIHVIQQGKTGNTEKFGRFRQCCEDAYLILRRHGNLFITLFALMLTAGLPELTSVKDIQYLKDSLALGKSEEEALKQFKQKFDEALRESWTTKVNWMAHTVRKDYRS
Sequence of PI3Kβ (P27986 whole entry partner, the tested form may be a part, canonical isoform): as the sequence (P27986 whole entry partner, canonical isoform) above

Compound | pIC50 [1] | pIC50 [2] | pEC50 ([3]; Homo sapiens, class symbol) | pEC50 ([3]; Homo sapiens, geometric mean) | half-life at 2 μM ([4]; class symbol) [h] | half-life at 2 μM ([4]; Table 3) [h] | pEC50 ([3]; class symbol) | pEC50 ([3]; geometric mean)
N#Cc1c(N)nc(N)nc1N[C@H](c1nc2c(F)ccc(Cl)c2c(=O)n1-c1ccc(N)nc1)C1CC1 [Compound 107, (S)-2,4-diamino-6-(((3-(6-aminopyridin-3-yl)-5-chloro-8-fluoro-4-oxo-3,4-dihydroquinazolin-2-yl)(cyclopropyl)methyl)amino)pyrimidine-5-carbonitrile] | 9.00 | 8.52 |  |  |  |  |  | 
CC[C@H](Nc1nc(N)nc(N)c1Cl)c1nc2cccc(Cl)c2c(=O)n1-c1ccc(N)nc1 [Compound 86, (S)-3-(6-aminopyridin-3-yl)-5-chloro-2-(1-((2,6-diamino-5-chloropyrimidin-4-yl)amino)propyl)quinazolin-4(3H)-one] | 8.05 | 7.46 |  |  |  |  |  | 
Cc1cc(N)ncc1-n1c([C@@H](Nc2nc(N)nc(N)c2C#N)C2CC2)nc2c(Cl)ccc(Cl)c2c1=O (atropisomer, axis not shown) [Compound 98, (S)-2,4-diamino-6-(((3-(6-amino-4-methylpyridin-3-yl)-5,8-dichloro-4-oxo-3,4-dihydroquinazolin-2-yl)(cyclopropyl)methyl)amino)pyrimidine-5-carbonitrile] | 7.68 | 6.80 |  |  |  |  |  | 
C[C@H](Nc1nc(N)nc(N)c1Cl)c1nc2c(Cl)ccc(Cl)c2c(=O)n1-c1ccc(N)nc1 [Compound 83, (S)-3-(6-aminopyridin-3-yl)-5,8-dichloro-2-(1-((2,6-diamino-5-chloropyrimidin-4-yl)amino)ethyl)quinazolin-4(3H)-one] | 7.92 | 7.38 |  |  |  |  |  | 
N#Cc1c(N)nc(N)nc1N[C@H](c1nc2cccc(Cl)c2c(=O)n1-c1ccc(N)nc1)C1CC1 [Compound 90, (S)-2,4-diamino-6-(((3-(6-aminopyridin-3-yl)-5-chloro-4-oxo-3,4-dihydroquinazolin-2-yl)(cyclopropyl)methyl)amino)pyrimidine-5-carbonitrile] | 9.22 | 8.70 |  |  |  |  |  | 
C[C@H](Nc1nc(N)nc(N)c1C#N)c1nc2ccc(F)c(Cl)c2c(=O)n1-c1ccc(N)nc1 [Compound 101, (S)-2,4-diamino-6-((1-(3-(6-aminopyridin-3-yl)-5-chloro-6-fluoro-4-oxo-3,4-dihydroquinazolin-2-yl)ethyl)amino)pyrimidine-5-carbonitrile] | 8.10 | 7.96 |  |  |  |  |  | 
Cc1cc(N)ncc1-n1c([C@H](C)Nc2nc(N)nc(N)c2C#N)nc2cccc(Cl)c2c1=O (atropisomer, axis not shown) [Compound 93, (S)-2,4-diamino-6-((1-(3-(6-amino-4-methylpyridin-3-yl)-5-chloro-4-oxo-3,4-dihydroquinazolin-2-yl)ethyl)amino)pyrimidine-5-carbonitrile] | 8.70 | 7.52 |  |  |  |  |  | 
C[C@H](Nc1ncnc(N)c1C#N)c1nc2cccc(Cl)c2c(=O)n1-c1cncc(N)c1 [Compound 109, (S)-4-amino-6-((1-(3-(5-aminopyridin-3-yl)-5-chloro-4-oxo-3,4-dihydroquinazolin-2-yl)ethyl)amino)pyrimidine-5-carbonitrile] | 8.70 | 6.34 |  |  |  |  |  | 
C[C@H](Nc1nc(N)nc(N)c1Cl)c1nc2ccc(F)c(Cl)c2c(=O)n1-c1ccc(N)nc1 [Compound 100, (S)-3-(6-aminopyridin-3-yl)-5-chloro-2-(1-((2,6-diamino-5-chloropyrimidin-4-yl)amino)ethyl)-6-fluoroquinazolin-4(3H)-one] | 7.32 | 7.00 |  |  |  |  |  | 
CCC[C@H](Nc1nc(N)nc(N)c1C#N)c1nc2ccc(F)c(Cl)c2c(=O)n1-c1ccc(N)nc1 [Compound 105, (S)-2,4-diamino-6-((1-(3-(6-aminopyridin-3-yl)-5-chloro-6-fluoro-4-oxo-3,4-dihydroquinazolin-2-yl)butyl)amino)pyrimidine-5-carbonitrile] | 8.05 | 7.39 |  |  |  |  |  | 
CC[C@H](Nc1nc(N)nc(N)c1C#N)c1nc2cccc(Cl)c2c(=O)n1-c1cccnc1 [Compound 2, (S)-2,4-diamino-6-(1-(5-chloro-4-oxo-3-(pyridin-3-yl)-3,4-dihydroquinazolin-2-yl)propylamino)pyrimidine-5-carbonitrile] | 8.70 |  | 8.00 to 9.00 | 8.70 | > 10 | > 10 |  | 
C[C@H](Nc1nc(N)nc(N)c1C#N)c1nc2ccc(F)cc2c(=O)n1-c1cccnc1 [Compound 5, (S)-2,4-diamino-6-(1-(6-fluoro-4-oxo-3-(pyridin-3-yl)-3,4-dihydroquinazolin-2-yl)ethylamino)pyrimidine-5-carbonitrile] | 7.85 |  | 8.00 to 9.00 | 8.70 | > 10 | > 10 |  | 
CC[C@H](Nc1nc(N)nc(N)c1C#N)c1nc2c(F)ccc(Cl)c2c(=O)n1-c1cccnc1 [Compound 26, (S)-2,4-diamino-6-(1-(5-chloro-8-fluoro-4-oxo-3-(pyridin-3-yl)-3,4-dihydroquinazolin-2-yl)propylamino)pyrimidine-5-carbonitrile] | 9.00 |  | > 9.00 | 9.15 | > 10 | > 10 |  | 

The remaining lines, values ahead:

pIC50 [1] | pIC50 [2] | pEC50 ([3]; Homo sapiens, class symbol) | pEC50 ([3]; Homo sapiens, geometric mean) | half-life at 2 μM ([4]; class symbol) [h] | half-life at 2 μM ([4]; Table 3) [h] | pEC50 ([3]; class symbol) | pEC50 ([3]; geometric mean) | Compound
8.52 |  | 8.00 to 9.00 | 8.52 | > 10 | > 10 |  |  | CC[C@H](Nc1nc(N)nc(N)c1C#N)c1nc2cccc(Cl)c2c(=O)n1-c1cncc(F)c1 [Compound 20, (S)-2,4-diamino-6-(1-(5-chloro-3-(5-fluoropyridin-3-yl)-4-oxo-3,4-dihydroquinazolin-2-yl)propylamino)pyrimidine-5-carbonitrile]
9.10 |  | > 9.00 | 9.30 | 3 to 6 | 5 |  |  | Cc1cccc2nc([C@H](C)Nc3nc(N)nc(N)c3C#N)n(-c3cncc(F)c3)c(=O)c12 [Compound 11, (S)-2,4-diamino-6-(1-(3-(5-fluoropyridin-3-yl)-5-methyl-4-oxo-3,4-dihydroquinazolin-2-yl)ethylamino)pyrimidine-5-carbonitrile]
8.70 |  | 8.00 to 9.00 | 8.40 | > 10 | > 10 |  |  | N#Cc1c(N)nc(N)nc1N[C@H](c1nc2cccc(Cl)c2c(=O)n1-c1cncc(F)c1)C1CC1 [Compound 21, (S)-2,4-diamino-6-((5-chloro-3-(5-fluoropyridin-3-yl)-4-oxo-3,4-dihydroquinazolin-2-yl)(cyclopropyl)methylamino)pyrimidine-5-carbonitrile]
8.40 |  | 7.30 to 8.00 | 7.72 | > 10 | > 10 |  |  | C[C@H](Nc1nc(N)nc(N)c1C#N)c1nc2cccc(Cl)c2c(=O)n1-c1cncc(C(F)F)c1 [Compound 15, (S)-2,4-diamino-6-(1-(5-chloro-3-(5-(difluoromethyl)pyridin-3-yl)-4-oxo-3,4-dihydroquinazolin-2-yl)ethylamino)pyrimidine-5-carbonitrile]
9.00 |  | > 9.00 | 9.15 | 6 to 10 | 9 |  |  | C[C@H](Nc1nc(N)nc(N)c1C#N)c1nc2c(Cl)ccc(Cl)c2c(=O)n1-c1cncc(F)c1 [Compound 30, (S)-2,4-diamino-6-(1-(5,8-dichloro-3-(5-fluoropyridin-3-yl)-4-oxo-3,4-dihydroquinazolin-2-yl)ethylamino)pyrimidine-5-carbonitrile]
9.40 |  |  |  | > 10 | > 10 | 8.00 to 9.00 | 8.40 | Cc1ccncc1-n1c([C@H](C)Nc2nc(N)nc(N)c2C#N)nc2cccc(Cl)c2c1=O (atropisomer, axis not shown) [Compound 41, (S)-2,4-diamino-6-(1-(5-chloro-3-(4-methylpyridin-3-yl)-4-oxo-3,4-dihydroquinazolin-2-yl)ethylamino)pyrimidine-5-carbonitrile]
